Reference: patent US9518015B2, “EP1 receptor ligands” (LABORATORIOS DEL DR. ESTEVE, S.A., priority 2011, dated 2016)

Columns and labels:
[1] = target: T1, human EP1 receptor (Homo sapiens, UniProt P34995); test: Test 2: Measurement of IP1 responses by HTRF, suspended HEK-293 cells stably expressing human EP1 receptors, PGE2 30 nM; type: cell-based; set-up: expressed in transfected cells; settings: HEK293, at 10 μM, read-out: Results of Test 2 (Functional assay), % inh
T1 sequence (P34995 1-402): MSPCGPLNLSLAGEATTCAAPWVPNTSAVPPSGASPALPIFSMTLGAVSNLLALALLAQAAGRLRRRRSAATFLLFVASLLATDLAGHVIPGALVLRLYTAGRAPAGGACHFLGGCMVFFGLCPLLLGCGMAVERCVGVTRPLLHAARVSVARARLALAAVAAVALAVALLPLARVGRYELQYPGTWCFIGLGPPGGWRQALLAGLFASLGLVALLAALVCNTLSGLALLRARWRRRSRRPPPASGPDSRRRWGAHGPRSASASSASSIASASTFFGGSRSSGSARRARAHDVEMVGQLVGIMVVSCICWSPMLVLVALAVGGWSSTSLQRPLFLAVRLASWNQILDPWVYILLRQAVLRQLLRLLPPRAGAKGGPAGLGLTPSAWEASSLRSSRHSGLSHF
Procedure, shortened: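 Suspended cells preincubated with compound for 15 min at 37 °C, then stimulated with 30 nM PGE2 for 90 min at 37 °C. IP1 quantified by competitive HTRF (665/620 nm) after lysis. Percent inhibition scaled between PGE2 alone (0%) and PGE2 plus 1 μM reference antagonist (100%).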

[2] = target: T1, human EP1 receptor; test: Test 1: Human EP1 receptor radioligand binding assay ([3H]-PGE2, transfected HEK-293 cell membranes); set-up: expressed in transfected cells; host or cells: HEK-293 cell membranes; settings: read-out: Results of Test 1 (Binding assay), % inh
Description: Test 1: Human EP1 Receptor Radioligand Binding Assay
To investigate binding properties of EP1 receptor ligands to human EP1 receptor, transfected HEK-293 cell membranes and [3H]-PGE2 (Perkin Elmer) were used. In 96-well plates the assay was carried out with a total reaction volume of 250 μl, containing 25 μl of membrane suspension (30 μg protein/well), 25 μl of [3H]-PGE2 (10 nM) in either absence or presence of 25 μl of either buffer or PGE2 (10 μM) for total and non-specific binding, respectively. Binding buffer contained 10 mM MES, 1 mM MgCl2 and 1 mM EDTA at pH 6.0. Plates were incubated at 25° C. for 60 minutes. After the incubation period, 200 μl of incubate were transferred to MultiScreen HTS, FB plates (Millipore), filtered and plates were washed 6 times with ice-cold 10 mM MES, 1 mM MgCl2 and 1 mM EDTA at pH 6.0. Filters were dried and counted in a MicroBeta scintillation counter (Perkin-Elmer) using EcoScint liquid scintillation cocktail.
Percentage inhibition was calculated relating compounds activity to the 0% inhibition of the wells incubated with 10 nM [3H]-PGE2 alone (total binding) and 100% inhibition of the wells incubated with 10 nM [3H]-PGE2 plus 10 μM PGE2 (non-specific binding).

[3] = target: T1, human EP1 receptor; test: Test 3: Measurement of IP1 responses by HTRF, HEK-293 cells stably expressing human EP1 receptors incubated o/n, PGE2 10 nM; type: cell-based; set-up: expressed in transfected cells; settings: HEK293, read-out: Results of Test 3 (Functional assay), % inh
Description: Test 3: Measurement of IP1 Responses by Homogeneous Time Resolved Fluorescence
IP1 measurements on HEK-293 cells that stably expressed human EP1 receptors were performed by using a system based on Homogeneous Time Resolved Fluorescense (HTRF) (Gabriel et al., 2003). This technology allows the direct measurement of IP1 in living cells. The principle of this assay is based on competition between IP1 produced by cells and IP1-d2 conjugate for the binding with monoclonal anti-IP1-cryptate conjugate. The HTRF IP1 kit from CisBio was used according to the manufacturer's directions. The experimental procedure was performed as stated below.
40,000 cells per well were added to 96-well culture plates in 40 μl of Optimem and incubated o/n at 37° C. Optimem was replaced by 40 μl of stimulation buffer (supplied by the kit) and compounds were then added in 20 μl of stimulation buffer and incubated at 37° C. for 15 minutes followed by 10 μl of PGE2 to a final concentration of 10 nM. After 90 minutes at 37° C., the reaction was stopped lysing the cells with a mixture of 15 μl of cryptate and 15 μl of IP1-d2 prepared in the lysis buffer supplied by the manufacturer. Plates were incubated for an additional hour at room temperature and read at 665 nm/620 nm using an UltraEvolution Plate reader (Tecan).
Antagonist percentage inhibition was calculated relating compounds activity to the 0% inhibition of the wells incubated with 10 nM PGE2 alone and 100% inhibition of the wells incubated with 10 nM PGE2 plus 10 μM of the reference antagonist.

Row | Structure (SMILES) | inhibition at 10 µM [1] [%] | inhibition at 10 µM [2] [%] | inhibition at 10 µM [3] [%]
1 | O=C(O)c1cccc2c1ccn2Cc1cc(Br)ccc1OCc1ccc(Br)cc1F [Example 55, 1-(5-bromo-2-((4-bromo-2-fluorobenzyl)oxy)benzyl)-1H-indole-4-carboxylic acid] | > 75 | > 75 | –
2 | O=C(O)c1ccc2c(ccn2Cc2cc(F)ccc2OCc2ccc(F)c(Br)c2)c1 [Example 68, 1-(2-((3-bromo-4-fluorobenzyl)oxy)-5-fluorobenzyl)-1H-indole-5-carboxylic acid] | > 75 | 45 to 75 | –
3 | O=C(O)c1ccc2c(ccn2Cc2cc(Br)ccc2OCc2ccc(F)cc2C(F)(F)F)c1 [Example 69] | > 75 | 45 to 75 | –
4 | O=C(O)c1ccc2c(ccn2Cc2cc(C(F)(F)F)ccc2OCc2ccc(Br)cc2F)c1 [Example 75, 1-(2-((4-bromo-2-fluorobenzyl)oxy)-5-(trifluoromethyl)benzyl)-1H-indole-5-carboxylic acid] | > 75 | 45 to 75 | –
5 | O=C(O)c1ncnc2c1ccn2Cc1cc(Cl)ccc1OCc1ccc(F)cc1F [Example 99] | > 75 | > 75 | –
6 | O=C(O)c1cccc2c1OCC(=O)N2Cc1cc(Br)ccc1OCc1ccc(Cl)cc1F [Example 115] | – | > 75 | > 75
7 | O=C(O)c1cccc2c1OCCN2Cc1cc(Cl)ccc1OCc1ccc(Cl)cc1F [Example 117] | – | > 75 | > 75
8 | O=C(O)c1cccc2c1OCCN2Cc1ccccc1OCc1ccc(Cl)cc1F [Example 119] | – | > 75 | > 75
9 | O=C(O)c1cccc2c1OCCN2Cc1cc(F)ccc1OCc1ccc(F)cc1Cl [Example 121] | – | > 75 | > 75
10 | O=C(O)c1cccc2c1OCCN2Cc1ccccc1OCc1ccc(F)cc1F [Example 122] | – | > 75 | > 75
11 | O=C(O)c1cccc2c1cnn2Cc1cc(Cl)ccc1OCc1ccc(Cl)cc1F [Example 124] | – | > 75 | > 75
12 | CC(C)(F)COc1ccc(Cl)cc1Cn1ncc2c(C(=O)O)cccc21 [Example 125] | – | > 75 | > 75
13 | O=C(O)c1cccc2c1cnn2Cc1cc(Br)ccc1OCc1ccc(Cl)cc1F [Example 136] | – | > 75 | > 75
14 | O=C(O)c1cccc2c1cnn2Cc1cc(Cl)ccc1OC1CCC1 [Example 137] | – | > 75 | > 75
15 | CC(C)(C)COc1ccc(Cl)cc1Cn1ncc2c(C(=O)O)cccc21 [Example 138] | – | > 75 | > 75
16 | O=C(O)c1cccc2c1c(CO)cn2Cc1cc(Cl)ccc1OCc1ccc(Cl)cc1F [Example 141, sodium 1-(5-chloro-2-((4-chloro-2-fluorobenzyl)oxy)benzyl)-3-(hydroxymethyl)-1H-indole-4-carboxylate] | – | > 75 | > 75
17 | O=C(O)c1cccc2c1c(CO)cn2Cc1cc(Cl)ccc1OCc1ccc(F)cc1F [Example 142] | – | > 75 | > 75
18 | O=C(O)c1cccc2c1c(CO)cn2Cc1ccccc1OCc1ccc(Cl)cc1F [Example 144] | – | > 75 | > 75
19 | O=C(O)c1cccc2c1c(CO)cn2Cc1cc(F)ccc1OCc1ccc(F)cc1F [Example 145] | – | > 75 | > 75
20 | O=C(O)c1cccc2c1c(CO)cn2Cc1cc(F)ccc1OCc1ccc(Cl)cc1F [Example 146] | – | > 75 | > 75

Row | Structure (SMILES) | inhibition at 10 µM [1] [%] | inhibition at 10 µM [2] [%] | inhibition at 10 µM [3] [%]
21 | CC(C)(F)COc1ccc(Cl)cc1Cn1cc(CO)c2c(C(=O)O)cccc21 [Example 147] | – | > 75 | > 75
22 | O=C(O)c1cccc2c1c(CO)cn2Cc1cc(F)ccc1OC1CCC1 [Example 148] | – | > 75 | > 75
23 | O=C(O)c1cccc2c1c(CO)cn2Cc1cc(F)ccc1OCc1ccc(F)cc1 [Example 149] | – | > 75 | > 75
24 | CC(CF)COc1ccc(Cl)cc1Cn1cc(CO)c2c(C(=O)O)cccc21 (centres unmarked) [Example 151] | – | > 75 | > 75
25 | O=C(O)c1ccnc2c1c(CO)cn2Cc1cc(Cl)ccc1OCc1ccc(F)cc1F [Example 152] | – | > 75 | > 75
26 | CC(C)COc1ccc(Cl)cc1Cn1cc(CCO)c2c(C(=O)O)cccc21 [Example 157] | – | > 75 | > 75
27 | CC(C)(F)COc1ccc(Cl)cc1CN1CCc2c(C(=O)O)cccc21 [Example 166] | – | > 75 | > 75
28 | CC(C)COc1ccc(Cl)cc1CN1CCc2c(C(=O)O)cccc21 [Example 169] | – | > 75 | > 75
29 | CC(C)COc1ccc(F)cc1CN1CCc2c(C(=O)O)cccc21 [Example 170] | – | > 75 | > 75
30 | CC(C)COc1ccc(Cl)cc1CN1CCCc2c(C(=O)O)cccc21 [Example 175] | – | > 75 | > 75
31 | CC(C)(F)COc1ccc(Cl)cc1CN1CCCc2c(C(=O)O)cccc21 [Example 177] | – | > 75 | > 75
32 | O=C(O)c1cccc2c1CCCN2Cc1cc(Cl)ccc1OC1CCC1 [Example 178] | – | > 75 | > 75
33 | C=C(CF)COc1ccc(Cl)cc1CN1CCCc2c(C(=O)O)cccc21 [Example 182] | – | > 75 | > 75
34 | O=C(O)c1cccc2c1c(CO)nn2Cc1cc(Cl)ccc1OCc1ccc(Cl)cc1F [Example 188, sodium 1-(5-chloro-2-((4-chloro-2-fluorobenzyl)oxy)benzyl)-3-(hydroxymethyl)-1H-indazole-4-carboxylate] | – | > 75 | > 75
35 | Cc1ccc(OCc2ccc(Cl)cc2F)c(CN2CCOc3c(C(=O)O)cccc32)c1 [Example 194] | – | > 75 | > 75
36 | CC(C)COc1ccc(F)cc1CN1CCOc2c(C(=O)O)cccc21 [Example 195] | – | > 75 | > 75
37 | CC(C)COc1ccc(Cl)cc1CN1CCOc2c(C(=O)O)cccc21 [Example 196] | – | > 75 | > 75
38 | O=C(O)c1cccc2c1OCCN2Cc1cc(Cl)ccc1OC1CCC1 [Example 197] | – | > 75 | > 75
39 | COCc1cn(Cc2cc(Cl)ccc2OCc2ccc(Cl)cc2F)c2cccc(C(=O)O)c12 [Example 207, Sodium 1-(5-chloro-2-(4-chloro-2-fluorobenzyloxy)benzyl)-3-(methoxymethyl)-1H-indole-4-carboxylate] | – | > 75 | > 75
40 | O=C(O)c1cccc2c1CC(=O)N2Cc1cc(Cl)ccc1OCc1ccc(Cl)cc1F [Example 208, sodium 1-(5-chloro-2-(4-chloro-2-fluorobenzyloxy)benzyl)-2-oxoindoline-4-carboxylate] | – | > 75 | > 75
